# Test results as given in ChEMBL document CHEMBL4261496, “Targeting quinolone- and aminocoumarin-resistant bacteria with new gyramide analogs that inhibit DNA gyrase” (Medchemcomm, 2017).
# pIC50: −log10 of the molar value. Calls of active or inactive are those of the source. The calls are words filed in the database; no cut-off is given here.
# Assays:
# Escherichia coli [1] = assay: Antibacterial activity against Escherichia coli BW25113 after 16 to 18 hrs by broth microdilution method; type: functional
# Escherichia coli [2] = assay: Antibacterial activity against Escherichia coli MC4100 after 16 to 18 hrs by broth microdilution method; type: functional
# Escherichia coli [3] = assay: Antibacterial activity against Escherichia coli BAS849 after 16 to 18 hrs by broth microdilution method; type: functional
# Escherichia coli [4] = assay: Antibacterial activity against Escherichia coli UPEC after 16 to 18 hrs by broth microdilution method; type: functional
# Acinetobacter baumannii = assay: Antibacterial activity against Acinetobacter baumannii clinical isolate after 16 to 18 hrs by broth microdilution method; type: functional
# Edwardsiella tarda = assay: Antibacterial activity against Edwardsiella tarda clinical isolate after 16 to 18 hrs by broth microdilution method; type: functional
# Klebsiella aerogenes = assay: Antibacterial activity against Enterobacter aerogenes clinical isolate after 16 to 18 hrs by broth microdilution method; type: functional
# Klebsiella pneumoniae = assay: Antibacterial activity against Klebsiella pneumoniae after 16 to 18 hrs by broth microdilution method; type: functional
# Morganella morganii = assay: Antibacterial activity against Morganella morganii clinical isolate after 16 to 18 hrs by broth microdilution method; type: functional
# Pseudomonas aeruginosa = assay: Antibacterial activity against Pseudomonas aeruginosa after 16 to 18 hrs by broth microdilution method; type: functional
# Salmonella typhimurium = assay: Antibacterial activity against Salmonella enterica subsp. enterica serovar Typhimurium after 16 to 18 hrs by broth microdilution method; type: functional
# Shigella flexneri = assay: Antibacterial activity against Shigella flexneri after 16 to 18 hrs by broth microdilution method; type: functional
# Bacillus subtilis = assay: Antibacterial activity against Bacillus subtilis after 16 to 18 hrs by broth microdilution method; type: functional
# Bacillus cereus = assay: Antibacterial activity against Bacillus cereus after 16 to 18 hrs by broth microdilution method; type: functional
# Enterococcus faecalis = assay: Antibacterial activity against Enterococcus faecalis after 16 to 18 hrs by broth microdilution method; type: functional
# Enterococcus faecium = assay: Antibacterial activity against Enterococcus faecium after 16 to 18 hrs by broth microdilution method; type: functional
# Staphylococcus aureus = assay: Antibacterial activity against Staphylococcus aureus subsp. aureus clinical isolate after 16 to 18 hrs by broth microdilution method; type: functional
# [5] = tested on: Staphylococcus saprophyticus; assay: Antibacterial activity against Staphylococcus saprophyticus clinical isolate after 16 to 18 hrs by broth microdilution method; type: functional
# [6] = tested on: Staphylococcus epidermidis; assay: Antibacterial activity against Staphylococcus epidermidis clinical isolate after 16 to 18 hrs by broth microdilution method; type: functional
# Streptococcus agalactiae = assay: Antibacterial activity against Streptococcus agalactiae after 16 to 18 hrs by broth microdilution method; type: functional
# Streptococcus pyogenes = assay: Antibacterial activity against Streptococcus pyogenes after 16 to 18 hrs by broth microdilution method; type: functional
# Escherichia coli [7] = assay: Antibacterial activity against gyramide-resistant Escherichia coli JW5503 harboring GyrA Pro35Thr mutant after 16 to 18 hrs by broth microdilution method; type: functional
# Escherichia coli [8] = assay: Antibacterial activity against gyramide-resistant Escherichia coli JW5503 harboring GyrA Ser97Pro mutant after 16 to 18 hrs by broth microdilution method; type: functional
# Escherichia coli [9] = assay: Antibacterial activity against gyramide-resistant Escherichia coli JW5503 harboring GyrA Phe96Leu mutant after 16 to 18 hrs by broth microdilution method; type: functional
# Escherichia coli [10] = assay: Antibacterial activity against gyramide-resistant Escherichia coli JW5503 harboring GyrA His45Tyr mutant after 16 to 18 hrs by broth microdilution method; type: functional
# Escherichia coli [11] = assay: Antibacterial activity against gyramide-resistant Escherichia coli JW5503 harboring GyrB Thr508Met mutant after 16 to 18 hrs by broth microdilution method; type: functional
# Escherichia coli [12] = assay: Antibacterial activity against ciprofloxacin-resistant Escherichia coli JW5503 harboring GyrA Ser83Leu mutant after 16 to 18 hrs by broth microdilution method; type: functional
# Escherichia coli [13] = assay: Antibacterial activity against ciprofloxacin-resistant Escherichia coli JW5503 harboring GyrA Asp87Gly mutant after 16 to 18 hrs by broth microdilution method; type: functional
# Escherichia coli [14] = assay: Antibacterial activity against ciprofloxacin-resistant Escherichia coli JW5503 harboring GyrA Asp87Tyr mutant after 16 to 18 hrs by broth microdilution method; type: functional
# Escherichia coli [15] = assay: Antibacterial activity against ciprofloxacin-resistant Escherichia coli JW5503 harboring GyrB Ser464Phe mutant after 16 to 18 hrs by broth microdilution method; type: functional
# Escherichia coli [16] = assay: Antibacterial activity against Escherichia coli HB101 after 16 to 18 hrs by broth microdilution method; type: functional
# Escherichia coli [17] = assay: Antibacterial activity against Escherichia coli HB101 after 16 to 18 hrs in presence of PAbetaN by broth microdilution method; type: functional
# Escherichia coli [18] = assay: Antibacterial activity against novobiocin-resistant Escherichia coli LE316 harboring GyrB Arg136Val mutant after 16 to 18 hrs in presence of PAbetaN by broth microdilution method; type: functional
# [19] = Ratio of MIC for Escherichia coli BW25113 to MIC for Escherichia coli JW5503; type: functional
# Escherichia coli [20] = assay: Ratio of MIC for gyramide-resistant Escherichia coli JW5503 harboring GyrA Pro35Thr mutant to MIC for Escherichia coli JW5503; type: functional
# Escherichia coli [21] = assay: Ratio of MIC for gyramide-resistant Escherichia coli JW5503 harboring GyrA Ser97Pro mutant to MIC for Escherichia coli JW5503; type: functional
# Escherichia coli [22] = assay: Ratio of MIC for gyramide-resistant Escherichia coli JW5503 harboring GyrA Phe96Leu mutant to MIC for Escherichia coli JW5503; type: functional
# Escherichia coli [23] = assay: Ratio of MIC for gyramide-resistant Escherichia coli JW5503 harboring GyrA His45Tyr mutant to MIC for Escherichia coli JW5503; type: functional
# Escherichia coli [24] = assay: Ratio of MIC for gyramide-resistant Escherichia coli JW5503 harboring GyrB Ser464Phe mutant to MIC for Escherichia coli JW5503; type: functional
# Escherichia coli [25] = assay: Ratio of MIC for ciprofloxacin-resistant Escherichia coli JW5503 harboring GyrA Asp87Tyr mutant to MIC for Escherichia coli JW5503; type: functional
# Escherichia coli [26] = assay: Ratio of MIC for ciprofloxacin-resistant Escherichia coli JW5503 harboring GyrA Ser83Leu mutant to MIC for Escherichia coli JW5503; type: functional
# Escherichia coli [27] = assay: Ratio of MIC for ciprofloxacin-resistant Escherichia coli JW5503 harboring GyrA Asp87Gly mutant to MIC for Escherichia coli JW5503; type: functional
# Escherichia coli [28] = assay: Ratio of MIC for ciprofloxacin-resistant Escherichia coli JW5503 harboring GyrB Ser464Phe mutant to MIC for Escherichia coli JW5503; type: functional
# Escherichia coli [29] = assay: Ratio of MIC for novobiocin-resistant Escherichia coli CC5 harboring GyrB Arg136His mutant to MIC for Escherichia coli HB101; type: functional
# Escherichia coli [30] = assay: Ratio of MIC for novobiocin-resistant Escherichia coli LE316 harboring GyrB Arg136Val mutant to MIC for Escherichia coli HB101; type: functional
# Escherichia coli [31] = assay: Ratio of MIC for novobiocin-resistant Escherichia coli CC7 harboring GyrB Arg136Ser mutant to MIC for Escherichia coli HB101; type: functional
# DNA gyrase = DNA gyrase (Escherichia coli, UniProt P0AES4+P0AES6); assay: Inhibition of Escherichia coli DNA gyrase assessed as inhibition of pUC19 supercoiling after 30 mins by agarose gel electrophoresis; type: protein-complex assay
# [32] = target: DNA gyrase (Escherichia coli) (UniProt P0AES6+P0AES4); assay: Inhibition of Escherichia coli DNA gyrase ATPase activity up to 100 uM using DNA as substrate after 60 mins; type: protein-complex assay
compound,measurement,setting,value
Cc1ccc(C(F)(F)F)cc1S(=O)(=O)N[C@@H]1CCN(Cc2ccc(OC3CC3)cc2)C1,MIC,Escherichia coli [1],8 µg/mL
same,MIC,Escherichia coli [2],16 µg/mL
same,MIC,Escherichia coli [3],1 µg/mL
same,MIC,Escherichia coli [4],> 16 µg/mL
same,MIC,Acinetobacter baumannii,> 16 µg/mL
same,MIC,Edwardsiella tarda,8 µg/mL
same,MIC,Klebsiella aerogenes,> 16 µg/mL
same,MIC,Klebsiella pneumoniae,> 16 µg/mL
same,MIC,Morganella morganii,> 16 µg/mL
same,MIC,Pseudomonas aeruginosa,> 16 µg/mL
same,MIC,Salmonella typhimurium,4 µg/mL
same,MIC,Shigella flexneri,4 µg/mL
same,MIC,Bacillus subtilis,8 µg/mL
same,MIC,Bacillus cereus,8 µg/mL
same,MIC,Enterococcus faecalis,16 µg/mL
same,MIC,Enterococcus faecium,8 µg/mL
same,MIC,Staphylococcus aureus,8 µg/mL
same,MIC,[5],8 µg/mL
same,MIC,[6],8 µg/mL
same,MIC,Streptococcus agalactiae,8 µg/mL
same,MIC,Streptococcus pyogenes,4 µg/mL
same,MIC,Escherichia coli [7],11 µg/mL
same,MIC,Escherichia coli [8],22 µg/mL
same,MIC,Escherichia coli [9],11 µg/mL
same,MIC,Escherichia coli [10],22 µg/mL
same,MIC,Escherichia coli [11],5.5 µg/mL
same,MIC,Escherichia coli [12],0.4 µg/mL
same,MIC,Escherichia coli [13],0.8 µg/mL
same,MIC,Escherichia coli [14],0.2 µg/mL
same,MIC,Escherichia coli [15],1.6 µg/mL
same,MIC,Escherichia coli [16],4 µg/mL
same,MIC,Escherichia coli [17],0.1 µg/mL
same,MIC,Escherichia coli [18],0.2 µg/mL
same,Ratio,[19],20
same,Ratio,Escherichia coli [20],10 - 100
same,Ratio,Escherichia coli [21],10 - 100
same,Ratio,Escherichia coli [22],10 - 100
same,Ratio,Escherichia coli [23],10 - 100
same,Ratio,Escherichia coli [24],10 - 100
same,Ratio,Escherichia coli [25],2 - 4
same,Ratio,Escherichia coli [26],2 - 4
same,Ratio,Escherichia coli [27],2 - 4
same,Ratio,Escherichia coli [28],2 - 4
same,Ratio,Escherichia coli [29],2 - 4
same,Ratio,Escherichia coli [30],2 - 4
same,Ratio,Escherichia coli [31],2 - 4
same,pIC50,DNA gyrase,6.77
same,inhibition,[32],inactive
